Measurements taken from US5516936A, “Inhibitors of kynureninase” (University of Georgia Research Foundation, Inc., priority 1993, dated 1996).
Entries after “also recorded” stand apart in the source; their conditions may differ. Like-named read-outs stand apart in the source and are kept apart here.

Legend:
[1] = test system: kynureninase; settings: cited from earlier work
[2] = test system: kynureninase; settings: Takeuchi et al. (1980); cited from earlier work
[3] = target: T1, Kynureninase (Pseudomonas fluorescens, UniProt P83788); assay: Inhibition of bacterial kynureninase by dihydrokynurenine; format: biochemical; settings: for inhibition of reaction with L-kynurenine (in words): bacterial kynureninase; for Ki value (comparison in words): compared between dihydrokynurenine diastereomers
T1 construct: Bacterial kynureninase was prepared from cells of Pseudomonas fluorescens; endogenous in cells; partially purified by DEAE-cellulose and ammonium sulfate
T1 sequence (P83788 1-416): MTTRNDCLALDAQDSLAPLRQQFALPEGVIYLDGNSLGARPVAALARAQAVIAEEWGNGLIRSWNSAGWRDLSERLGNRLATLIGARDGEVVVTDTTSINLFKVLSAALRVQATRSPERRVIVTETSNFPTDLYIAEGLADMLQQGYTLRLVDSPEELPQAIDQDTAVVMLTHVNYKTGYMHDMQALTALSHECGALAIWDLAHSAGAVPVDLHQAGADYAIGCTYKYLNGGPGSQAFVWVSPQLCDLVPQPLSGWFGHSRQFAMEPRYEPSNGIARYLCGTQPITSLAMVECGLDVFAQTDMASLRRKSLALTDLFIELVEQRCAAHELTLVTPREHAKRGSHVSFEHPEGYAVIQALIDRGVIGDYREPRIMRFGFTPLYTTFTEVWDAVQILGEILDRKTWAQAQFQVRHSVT
Method: As an extension of these mechanistic studies, the reactivities of dihydrokynurenine diastereomers were examined. […] This increased affinity of (αS,γS)-dihydrokynurenine is characteristic of mechanism-based, or "transition-state analogue" inhibitors.
(§1) Bacterial kynureninase was prepared from cells of Pseudomonas fluorescens (ATCC 11250, for example) essentially as described by .Hayaishi and Stanier (1952) J. Biol. Chem. 195:735-740. Cells were grown on a minimal medium containing 0.1% L-tryptophan as the sole carbon and nitrogen source.
From 100 1 of medium, grown for 18 h at 30° C. 230 g of wet cell paste was obtained. The cells were suspended in 1 of 0.01M potassiumphosphate, pH 7.0, and disrupted by 2 passages through a Manton-Gaulin homogenizer. After centrifugation of the cell extract for 1 h at 10000 g, the enzyme was partially purified by ion-exchange chromatography on DEAE-cellulose and ammonium sulfate precipitation.
Inhibition of kynureninase by dihydrokynurenine was measured by including the potential inhibitor in the enzyme assay mixture (see Example 1 and Tanzawa and Soda (1979) supra) and determining the apparent Km for L-kynurenine (the preferred substrate of bacterial kynurenine) in the absence and presence of the potential inhibitor. Ki values were then calculated using the standard equation: […]
Inhibition of kynureninase by the (αS,γR)- and (αS,γS)-diastereomers of dihydrokynurenine was examined and Ki 's were determined. […] The Ki value for the […] was lower than for the (αS,γR)-diastereomer.

[4] = target: T2, rat liver kynureninase (Rattus norvegicus, UniProt P70712); assay: Inhibition of rat liver kynureninase (cysteine conjugate β-lyase activity with S-(2-benzothiazolyl)cysteine); format: biochemical; settings: S-(2-benzothiazolyl)cysteine as substrate
T2 construct: host or cells: rat liver
T2 sequence (P70712 1-464): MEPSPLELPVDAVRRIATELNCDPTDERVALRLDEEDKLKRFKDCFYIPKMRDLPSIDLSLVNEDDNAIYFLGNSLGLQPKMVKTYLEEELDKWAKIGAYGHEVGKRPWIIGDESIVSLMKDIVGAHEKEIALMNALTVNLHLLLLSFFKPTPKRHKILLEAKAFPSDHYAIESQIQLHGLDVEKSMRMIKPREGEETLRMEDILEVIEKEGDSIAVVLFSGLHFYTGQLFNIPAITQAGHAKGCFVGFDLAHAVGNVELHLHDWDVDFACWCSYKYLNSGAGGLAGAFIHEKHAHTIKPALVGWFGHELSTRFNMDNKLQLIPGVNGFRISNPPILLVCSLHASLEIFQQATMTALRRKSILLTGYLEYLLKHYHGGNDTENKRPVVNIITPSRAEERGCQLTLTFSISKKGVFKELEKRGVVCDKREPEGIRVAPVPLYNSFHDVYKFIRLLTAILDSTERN
Method: Inhibition of mammalian kynureninase can be measured using several different assays for enzyme activity. Rat liver kynureninase is obtained from homogenization of rat liver, followed by precipitation with (NH4)2 SO4, as described by Stevens, J. L., J. Biol. Chem. (1985) 260:7945-7950, which is incorporated by reference herein. The activity of rat liver kynureninase was assessed by measurement of the cysteine conjugate β-lyase activity, as described by Stevens (supra), with S-(2-benzothiazolyl)cysteine, a nonphysiological chromophoric substrate. Inhibition of kynureninase by the dihydrokynurenine diastereomers was assessed with respect to reaction with that substrate.

[5] = target: T1, Kynureninase; assay: Reactivity of dihydrokynurenine and L-kynurenine with bacterial kynureninase; format: biochemical; settings: pH 8.0, 25°; for reactivity with kynureninase (in words): o-aminobenzaldehyde formation at 360 nm
Method: as §1
From 100 1 of medium, grown for 18 h at 30° C. […] The cells were suspended in 1 of 0.01M potassiumphosphate, pH 7.0, and disrupted by 2 passages through a Manton-Gaulin homogenizer. After centrifugation of the cell extract for 1 h at 10000 g, the enzyme was partially purified by ion-exchange chromatography on DEAE-cellulose and ammonium sulfate precipitation.
The reactivity of the two dihydrokynurenines with kynureninase in 0.1M potassium phosphate buffer, pH 8.0, at 25° was examined. Reaction was followed by the appearance of o-aminobenzaldehyde, as determined spectrophotometrically by the increase in absorbance at 360 nm (See Tanizawa and Soda (1979) Biochem. (Tokyo) 86:1199-1209, which is incorporated by reference herein).

[6] = test system: cystsine lyase; settings: cited from earlier work
[7] = target: T2, rat liver kynureninase; settings: cited from earlier work
[8] = test system: cystsine conjugate β-lyase; settings: cited from earlier work
[9] = test system: bacterial kynureninase; settings: Tanizawa and Soda (1979); cited from earlier work
[10] = substrate: Nc1ccccc1C(=O)C[C@H](N)C(=O)O; assay: Reactivity of dihydrokynurenine and L-kynurenine with bacterial kynureninase; format: biochemical, Pseudomonas fluorescens; settings: other: L-kynurenine, present work, 30.0 °C

Molecule: NC(C(=O)O)C(F)(F)C(=O)c1ccccc1 (stereo not drawn) [2,2-difluoro-α-benzoyl alanine, α-amino-β,β-difluoro-γ-oxobenzene butanoic acid]
- inhibition of kynureninase (in words) [1]: competitive inhibitor of kynureninase

Molecule: Nc1c(O)cccc1C(=O)O [3-hydroxyanthranilate, 3-hydroxyanthranilic acid]
- inhibition of kynureninase (in words) [2]: inhibit the enzyme

Molecule: Nc1ccccc1[C@H](O)C[C@H](N)C(=O)O [(αS,γR)-dihydrokynurenine, (αS;γR)-α,2-diamino-γ-hydroxybenzenebutanoic acid]
- inhibition of reaction with L-kynurenine (in words) ([3]; listed as (αS,γR)-diastereomer): strongly inhibited; also recorded: competitive inhibitors
- Ki value (comparison in words) [3]: lower
- Ki ([3]; competitive with respect to L-kynurenine): 5 µM
- inhibition of rat liver kynureninase (in words) [4]: inhibit the reaction of rat liver kynureninase
- rate of reaction relative to L-kynurenine ([5]; 0.1M potassium phosphate buffer): about 5%
- reactivity with kynureninase (in words) [5]: reacted slowly with kynureninase
- reactivity with kynureninase (in words) ([5]; listed as (αS,γR)-Dihydrokynurenine): slow substrate

Molecule: Nc1ccccc1[C@@H](O)C[C@H](N)C(=O)O [(αS,γS)-dihydrokynurenine, (αS,γS)-α,2-diamino-γ-hydroxybenzenebutanoic acid]
- binding relative to L-kynurenine (in words) [3]: binds about more tightly than does L-kynurenine
- inhibition of reaction with L-kynurenine (in words) [3]: competitive inhibitor of the enzyme
- inhibition of reaction with L-kynurenine (in words) ([3]; listed as (αS,γS)-diastereomer): strongly inhibited; also recorded: competitive inhibitors
- Ki value (comparison in words) [3]: lower
- inhibition of rat liver kynureninase (in words) ([4]; listed as (αS,γS) diastereomer): stronger competitive inhibitor
- inhibition of rat liver kynureninase (in words) ([4]; listed as (αS,δS)): inhibit the reaction of rat liver kynureninase
- Ki ([4]; rat liver kynureninase): ~690 µM
- reactivity with kynureninase (in words) [5]: not a substrate for the kynureninase
- reactivity with kynureninase (in words) ([5]; listed as (αS,γS) diastereomer): unreactive
- reactivity with kynureninase (in words) ([5]; listed as (αS,γS)-diastereomer): No significant reaction

Molecule: NO [H2 NOH]
- inhibition of cystsine lyase (in words) [6]: significantly inhibited

Molecule: N[C@@H](CSc1nc2ccccc2s1)C(=O)O [S-2-(benzothiazolyl)-L-cysteine]
- cleavage by rat liver kynureninase (in words) [7]: cleavage of S-2-(benzothiazolyl)-L-cysteine to give 2-mercaptobenzothiazole, pyruvate and ammonia

Molecule: N[C@@H](CSCc1ccccc1)C(=O)O [S-benzyl-L-cysteine]
- β-lyase-mediated metabolism (in words) [8]: cleaved to give pyruvate

Molecule: NOCC(=O)O [aminooxyacetic acid]
- inhibition of cystsine lyase (in words) [6]: most inhibitory derivative tested
- inhibition of β-lyase (in words) [8]: inhibitor of the β-lyase

Molecule: Nc1ccccc1C(=O)O [anthranilic acid]
- inhibition of kynureninase (in words) [2]: inhibit the enzyme
- inhibition of bacterial kynureninase (in words) [9]: inhibitors

B1: Kynureninase (Pseudomonas fluorescens) (protein)
chain: MTTRNDCLALDAQDSLAPLRQQFALPEGVIYLDGNSLGARPVAALARAQAVIAEEWGNGLIRSWNSAGWRDLSERLGNRLATLIGARDGEVVVTDTTSINLFKVLSAALRVQATRSPERRVIVTETSNFPTDLYIAEGLADMLQQGYTLRLVDSPEELPQAIDQDTAVVMLTHVNYKTGYMHDMQALTALSHECGALAIWDLAHSAGAVPVDLHQAGADYAIGCTYKYLNGGPGSQAFVWVSPQLCDLVPQPLSGWFGHSRQFAMEPRYEPSNGIARYLCGTQPITSLAMVECGLDVFAQTDMASLRRKSLALTDLFIELVEQRCAAHELTLVTPREHAKRGSHVSFEHPEGYAVIQALIDRGVIGDYREPRIMRFGFTPLYTTFTEVWDAVQILGEILDRKTWAQAQFQVRHSVT
notes: Bacterial kynureninase was prepared from cells of Pseudomonas fluorescens; endogenous in cells; partially purified by DEAE-cellulose and ammonium sulfate
- Km [10]: 25 µM
